# Where “and” joins values, the source holds several entries; their conditions need not be identical. Equal values may be shown once. Read-outs that look alike come from different tables or passages of the source.
# Experiments:
# [1] = test system: D2/3R; set-up: method as in PMID 24325578; conditions: cited from earlier work; for Striatal SBR % change relative to control condition, Raclopride / Striatal SBR, Raclopride: 10 μM raclopride; for Striatal SBR % change relative to control condition, GTP / Striatal SBR, GTP: 100 μM GTP; for Striatal SBR, Control: radioligand only
# [2] = test system: D2/3R; assay: MicroPET study in rats; type: in vivo, Sprague-Dawley rats; conditions: for blood-brain barrier penetration: PET in rats; for Brain uptake, peak: 3 min after radiotracer injection, control rats; for Striatum-to-cerebellum uptake ratio (PET): saline pre-treated rats, peak (45 min post-injection for [^18F]FEt-AMC13 and [^11C]raclopride)
# Description: Animal experiments were performed by licensed investigators in compliance with the Law on Animal Experiments of The Netherlands. The protocol was approved by the Committee on Animal Ethics of the University of Groningen. Young male (10–12 weeks of age, 300–350 g body weight) Sprague-Dawley rats (Harlan, the Netherlands) were used for all experiments. The rats were maintained at a 12-h light/12-h dark regime and were fed standard laboratory chow ad libitum.
# Distribution of the radiotracers was studied in rats pre-treated, at random, with physiological saline (controls) or raclopride tartrate (1 mg/kg calculated per raclopride base, equivalent to 2.9 μmol/kg). Saline and raclopride were administered intravenously (1 mL/kg injected volume).
# An additional group of saline pre-treated rats, injected with [^11C]raclopride, served as positive controls for D2/3R-specific brain uptake.
# Two rats were scanned simultaneously. Before all manipulations, animals were anesthetized with a mixture of isoflurane/air (inhalation anesthesia, 5 % ratio during induction, 2 % at maintenance). Cannulae were placed into the rats’ left femoral arteries and veins; the operation took 45–50 min. The rats were positioned supine inside the camera (Focus 220 microPET, Siemens-Concorde), one above the other with their heads in the camera’s field of view. A 515-s transmission scan with a Co-57 point source was performed. Tracer was injected through the venous cannula as a slow bolus (1 mL volume, 60 s long) using an infusion pump. The second (upper) animal was injected 16 min after the first (lower).
# PET acquisition was started during the injection of radioactivity in the first rat. A 106-min long (76 min long in the case of [^11C]raclopride) list-mode acquisition protocol was used for the scan.
# List-mode data from the 106-min-long and 76-min-long scans were reframed into, respectively, 90-min-long and 60-min-long dynamic sequences of 6 × 10, 4 × 30, 2 × 60, 1 × 120, 1 × 180, 4 × 300, 3 × 600, and (for 90-min-long scans) 2 × 900 s frames. The data were reconstructed per time frame using an iterative reconstruction algorithm (attenuation-weighted 2-dimensional ordered-subset expectation maximization, provided by Siemens; 4 iterations, 16 subsets; zoom factor 2). Datasets were fully corrected for random coincidences, scatter, and attenuation. Data from the transmission scan were used for attenuation correction. The final datasets consisted of 95 slices, with a slice thickness of 0.8 mm and an in-plane image matrix size of 128 × 128 and pixel size of 0.47 × 0.47 mm.
# Reconstructed images were analyzed with Inveon 2.0 software (Siemens Medical Solutions, USA, Inc). Regions of interest (ROIs) were drawn manually on a T2-weighted MRI template of rat brain around the striatum, brainstem, cortex, hippocampus, hypothalamus, thalamus, olfactory bulbs, and cerebellum around the whole brain and around the pituitary gland. The MRI template was co-registered with the PET scan by image fusion. The time-activity curves (TAC) per ROI were determined in Bq/cm^3 units and converted into standardized uptake values (SUVs).
# Degree of D2/3R-specific binding of the tracers was characterized by BPND (as given above) or the specific binding ratio (SBR) given as target region activity/cerebellar activity - 1. Both were calculated under control conditions and in response to the raclopride challenge.
# [3] = [^18F]FBu-AMC13 0.2 nM, [^18F]FEt-AMC15 5.8 ± 1.6 nM
"Brain uptake, peak ([2]; PET)","Brain uptake ([2]; PET, 60 min post-injection)",SMILES,"Striatal SBR % change relative to control condition, Raclopride [1, 3]","Striatal SBR, Raclopride [1, 3]","Striatal SBR % change relative to control condition, Raclopride ([1]; tracer 4.5 ± 3.6 nM)","Striatal SBR, Raclopride ([1]; tracer 4.5 ± 3.6 nM)","Striatal SBR % change relative to control condition, GTP [1, 3]","Striatal SBR, GTP [1, 3]","Striatal SBR, Control [1, 3]","Striatal SBR, Control ([1]; tracer 4.5 ± 3.6 nM)",blood-brain barrier penetration [2],Striatum-to-cerebellum uptake ratio (PET) [2],"decrease in D2/3R-specific binding in the striatum in vivo ([2]; 1 mg/kg (2.9 μmol/kg) raclopride, range over estimates)","decrease of peak PET-based striatal SBR ([2]; 1 mg/kg raclopride, p = 0.25)","D2/3R occupancy by the tracer itself (crude estimation) ([2]; approach of Skinbjerg et al., all experiments)",peak PET-based striatal SBR ([2]; pre-treatment with 1 mg/kg (2.9 μmol/kg) raclopride),peak PET-based striatal SBR ([2]; saline pre-treated),effect of raclopride pre-treatment on radioactivity distribution in the brain ([2]; 1 mg/kg raclopride)
0.7 % ID,,Oc1ccc2c(c1)O[C@@H](CNCc1ccc(OCC[18F])cc1)CC2 [[^18F]FEt-AMC13],,,,,,,,,good blood-brain barrier (BBB) penetration,2.08 and 2.1 and 2.08 ± 0.25,17–39%,17%,no more than 3%,0.90 ± 0.11,1.08 ± 0.25,
0.2 % ID,0.04 % ID,"Oc1ccc2c(c1)O[C@@H](CNCCN1CCN(c3ccc(OCC[18F])cc3)CC1)CC2 [[^18F]FEt-AMC15, (R) 1-(4-(2-[^18F]fluoroethoxy)phenyl)-4-(4-(7-hydroxychroman-2-yl)-3-azabutyl)-piperazine]",−60%,0.65 ± 0.37,,,−59%,0.67 ± 0.28,1.64 ± 1.04,,essentially did not penetrate the BBB,,,,,,,no detectable alterations of radioactivity distribution in the brain

SMILES,"Brain uptake, peak ([2]; PET)","Brain uptake ([2]; PET, 60 min post-injection)","Striatal SBR % change relative to control condition, Raclopride [1, 3]","Striatal SBR, Raclopride [1, 3]","Striatal SBR % change relative to control condition, Raclopride ([1]; tracer 4.5 ± 3.6 nM)","Striatal SBR, Raclopride ([1]; tracer 4.5 ± 3.6 nM)","Striatal SBR % change relative to control condition, GTP [1, 3]","Striatal SBR, GTP [1, 3]","Striatal SBR, Control [1, 3]","Striatal SBR, Control ([1]; tracer 4.5 ± 3.6 nM)",blood-brain barrier penetration [2],Striatum-to-cerebellum uptake ratio (PET) [2],"decrease in D2/3R-specific binding in the striatum in vivo ([2]; 1 mg/kg (2.9 μmol/kg) raclopride, range over estimates)","decrease of peak PET-based striatal SBR ([2]; 1 mg/kg raclopride, p = 0.25)","D2/3R occupancy by the tracer itself (crude estimation) ([2]; approach of Skinbjerg et al., all experiments)",peak PET-based striatal SBR ([2]; pre-treatment with 1 mg/kg (2.9 μmol/kg) raclopride),peak PET-based striatal SBR ([2]; saline pre-treated),effect of raclopride pre-treatment on radioactivity distribution in the brain ([2]; 1 mg/kg raclopride)
"Oc1ccc2c(c1)O[C@@H](CNCc1ccc(OCCCC[18F])cc1)CC2 [[^18F]FBu-AMC13, (R)-2-[(4-(4-[^18F]fluorobutoxy)benzylamino)methyl]chroman-7-ol]",0.9 % ID,,−88%,0.10 ± 0.19,−79%,0.04 ± 0.22,−76%,0.20 ± 0.16,0.85 ± 0.23,0.19 ± 0.18,good blood-brain barrier (BBB) penetration,1.41 ± 0.08,,,,,,
